Tests used:
[1] = target: T1, recombinant human FLAP protein (Homo sapiens, UniProt P20292); assay: FLAP binding assay (SPA, displacement of [125I]L-691,831); details: membranes of sf9 cells expressing human FLAP, [125I]L-691,831 probe; read-out: hFLAP binding IC50
T1 construct: made in house; host or cells: Sf9 insect cells (membrane fraction, 100,000 x g pellet)
T1 sequence (P20292 1-161): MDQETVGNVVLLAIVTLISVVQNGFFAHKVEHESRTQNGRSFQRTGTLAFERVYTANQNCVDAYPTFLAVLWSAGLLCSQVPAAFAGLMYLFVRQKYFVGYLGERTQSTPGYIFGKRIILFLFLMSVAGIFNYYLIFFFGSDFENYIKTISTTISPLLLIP
Method in brief: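 Membranes from sf9 cells expressing human FLAP (5 μg/well) were bound to WGA SPA beads (200 μg/well). Nonspecific binding was defined with 10 μM unlabelled L-691,831.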

[2] = tested on: synthesis of LTB4 in human whole blood; assay: Human whole blood LTB4 production inhibition assay; type: cell-based; details: heparinized human whole blood, calcimycin 20 μM, plasma LTB4; read-out: HuWB IC50
Method in brief: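 Steps: compound plus heparinized human whole blood, 15 min at 37° C; add calcimycin to 20 μM final; incubate another 30 min at 37° C; centrifuge at low speed and collect plasma; measure LTB4 with a homogeneous time-resolved fluorescence immunoassay.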

Compound | IC50 [1] [nM] | IC50 [2] [nM]
Cc1nc(-c2ccc(NC(=O)C3(c4ccc(-c5cnc(N)nc5)cc4)CCCCC3)nc2)cs1 [Example 123, 1-[4-(2-aminopyrimidin-5-yl)phenyl]-N-[5-(2-methyl-1,3-thiazol-4-yl)pyridin-2-yl]cyclohexanecarboxamide] | 4 | 919
Cc1ccc2nc(NC(=O)C3(c4ccc(-c5cnc(N)nc5)cc4)CCOCC3)sc2c1 [Example 8, 4-[4-(2-aminopyrimidin-5-yl)phenyl]-N-(6-methyl-1,3-benzothiazol-2-yl)tetrahydro-2H-pyran-4-carboxamide] | 25 | 3560
COc1cncc(-c2ccc(C(C)(C(=O)Nc3ccc(C)nn3)C(C)C)cc2)c1 (stereo not shown) [Example 114] | 290 | > 20000
Cc1nc(-c2ccc(NC(=O)C3(c4ccc(-c5cnc6[nH]ccc6c5)cc4)CCOCC3)nc2)cs1 [Example 151, N-[5-(2-methyl-1,3-thiazol-4-yl)pyridin-2-yl]-4-[4-(1H-pyrrolo[2,3-b]pyridin-5-yl)phenyl]tetrahydro-2H-pyran-4-carboxamide] | 2.1 | 200
COc1cncc(-c2ccc(NC(=O)C3(c4ccc(-c5cnc(N)c(CO)c5)cc4)CCOCC3)nc2)c1 [Example 171, 4-{4-[6-amino-5-(hydroxymethyl)pyridin-3-yl]phenyl}-N-(5'-methoxy-3,3'-bipyridin-6-yl)tetrahydro-2H-pyran-4-carboxamide] | 2.05 | 566
CCOC(=O)c1sc2ccc(NC(=O)C3(c4ccc(-c5cnc(N)nc5)cc4)CCOCC3)cc2c1C [Example 43, ethyl 5-[({4-[4-(2-aminopyrimidin-5-yl)phenyl]tetrahydro-2H-pyran-4-yl}carbonyl)amino]-3-methyl-1-benzothiophene-2-carboxylate] | 12.3 | > 3000
CN1CCN(c2cc(NC(=O)C3(c4ccc(-c5cnc(N)nc5)cc4)CCC3)ccn2)CC1 [Example 252, 1-[4-(2-aminopyrimidin-5-yl)phenyl]-N-[2-(4-methylpiperazin-1-yl)pyridin-4-yl]cyclobutanecarboxamide] | 7.4 | 228
Cn1ncnc1-c1ccc(NC(=O)C2(c3ccc(-c4cnc(N)nc4)cc3)CCC2)nc1 [Example 103, 1-[4-(2-aminopyrimidin-5-yl)phenyl]-N-[5-(1-methyl-1H-1,2,4-triazol-5-yl)pyridin-2-yl]cyclobutanecarboxamide] | 4.1 | 102
Nc1ncc(-c2ccc(C3(C(=O)Nc4ccccn4)CCOCC3)cc2)cn1 [Example 138, 4-[4-(2-aminopyrimidin-5-yl)phenyl]-N-(pyridin-2-yl)tetrahydro-2H-pyran-4-carboxamide] | 300 | 11800
Cn1cnc(-c2ccc(NC(=O)C3(c4ccc(-c5cnc(N)nc5)cc4)CCOCC3)nc2)c1 [Example 144, 4-[4-(2-aminopyrimidin-5-yl)phenyl]-N-[5-(1-methyl-1H-imidazol-4-yl)pyridin-2-yl]tetrahydro-2H-pyran-4-carboxamide] | 66 | 1590
Nc1ncc(-c2ccc(C3(C(=O)Nc4nc(-c5ccccc5)ns4)CCOCC3)cc2)cn1 [Example 36, 4-[4-(2-aminopyrimidin-5-yl)phenyl]-N-(3-phenyl-1,2,4-thiadiazol-5-yl)tetrahydro-2H-pyran-4-carboxamide] | 13.3 | > 3000
Cc1nc2cc(NC(=O)C3(c4ccc(-c5cnc(N)nc5)cc4)CCOCC3)ccc2s1 [Example 75, 4-[4-(2-aminopyrimidin-5-yl)phenyl]-N-(2-methyl-1,3-benzothiazol-5-yl)tetrahydro-2H-pyran-4-carboxamide] | 68 | > 3000
CCC(C)(C(=O)Nc1ccncc1)c1ccc(-c2cnc(N)nc2)cc1 (stereo not shown) [Example 231, 2-[4-(2-aminopyrimidin-5-yl)phenyl]-2-methyl-N-(pyridin-4-yl)butanamide] | 84 | 1210
Cc1nc(-c2ccc(NC(=O)C(c3ccc(-c4cnc(N)nc4)cc3)C(C)C)nc2)cs1 (stereo not shown) [Example 133, 2-[4-(2-aminopyrimidin-5-yl)phenyl]-3-methyl-N-[5-(2-methyl-1,3-thiazol-4-yl)pyridin-2-yl]butanamide] | 9.4 | 4400
Cc1nc(NC(=O)C2(c3ccc(-c4cnc(N)nc4)cc3)CCOCC2)ccc1C#N [Example 52, 4-[4-(2-aminopyrimidin-5-yl)phenyl]-N-(5-cyano-6-methylpyridin-2-yl)tetrahydro-2H-pyran-4-carboxamide] | 63.5 | 1810
Nc1ncc(-c2ccc(C3(C(=O)Nc4nc5ccccc5s4)CCOCC3)cc2)cn1 [Example 55, 4-[4-(2-aminopyrimidin-5-yl)phenyl]-N-(1,3-benzothiazol-2-yl)tetrahydro-2H-pyran-4-carboxamide] | 29 | > 3000
Nc1ncc(-c2ccc(C3(C(=O)Nc4cccc(-c5cnco5)c4)CCOCC3)cc2)cn1 [Example 26, 4-[4-(2-aminopyrimidin-5-yl)phenyl]-N-[3-(1,3-oxazol-5-yl)phenyl]tetrahydro-2H-pyran-4-carboxamide] | 26 | > 3000
Cc1noc(-c2ccc(NC(=O)C3(c4ccc(-c5cnc(N)nc5)cc4)CCOCC3)nc2)n1 [Example 178, 4-[4-(2-aminopyrimidin-5-yl)phenyl]-N-[5-(3-methyl-1,2,4-oxadiazol-5-yl)pyridin-2-yl]tetrahydro-2H-pyran-4-carboxamide] | 35.5 | 557
O=C(Nc1ccncn1)C1(c2ccc(-c3cnc4[nH]ccc4c3)cc2)CCC1 [Example 188, N-(pyrimidin-4-yl)-1-[4-(1H-pyrrolo[2,3-b]pyridin-5-yl)phenyl]cyclobutanecarboxamide] | 1.65 | 130
COc1cncc(-c2ccc(NC(=O)C(C)(c3ccc(-c4cnc(N)nc4)cc3)C(C)C)nc2)c1 (stereo not shown) [Example 162, 2-[4-(2-aminopyrimidin-5-yl)phenyl]-N-(5'-methoxy-3,3'-bipyridin-6-yl)-2,3-dimethylbutanamide] | 4.1 | 896

Other lines, results leading:

IC50 [1] [nM] | IC50 [2] [nM] | Compound
5.65 | 278 | Nc1ncc(-c2ccc(C3(C(=O)Nc4ccc(S(=O)(=O)N5CCOCC5)cc4)CCC3)cc2)cn1 [Example 88, 1-[4-(2-aminopyrimidin-5-yl)phenyl]-N-[4-(mopholin-4-ylsulfonyl)phenyl]cyclobutane-carboxamide]
2 | 1900 | N=C(N)NC(=O)c1ccc(NC(=O)C2(c3ccc(-c4cnc(N)nc4)cc3)CCC2)nc1 [Example 108, 6-[({1-[4-(2-aminopyrimidin-5-yl)phenyl]cyclobutyl}carbonyl)amino]-N-carbamimidoylpyridine-3-carboxamide]
2.8 | 415 | Nc1ncc(-c2ccc(C3(C(=O)Nc4ccc5ncsc5c4)CCC3)cc2)cn1 [Example 204, 1-[4-(2-aminopyrimidin-5-yl)phenyl]-N-(1,3-benzothiazol-6-yl)cyclobutanecarboxamide]
3.75 | 224 | Nc1ncc(-c2ccc(C3(C(=O)Nc4ccc(-c5ccccc5)cn4)CCC3)cc2)cn1 [Example 201, 1-[4-(2-aminopyrimidin-5-yl)phenyl]-N-(5-phenylpyridin-2-yl)cyclobutanecarboxamide]
3.2 | 60.8 | N#Cc1ccc(NC(=O)C2(c3ccc(-c4cnc(N)nc4)cc3)CCC2)cc1 [Example 250, 1-[4-(2-aminopyrimidin-5-yl)phenyl]-N-(4-cyanophenyl)cyclobutanecarboxamide]
4.85 | 4100 | COC(=O)c1cc(NC(=O)C2(c3ccc(-c4cnc(N)nc4)cc3)CCC2)ccc1O [Example 97, methyl 5-[({1-[4-(2-aminopyrimidin-5-yl)phenyl]cyclobutyl}carbonyl)amino]-2-hydroxybenzoate]
43.5 | 1230 | Cn1ccc(NC(=O)C2(c3ccc(-c4cnc(N)nc4)cc3)CCC2)n1 [Example 222, 1-[4-(2-aminopyrimidin-5-yl)phenyl]-N-(1-methyl-1H-pyrazol-3-yl)cyclobutanecarboxamide]
45.5 | 570 | CS(=O)(=O)c1ccc(NC(=O)C2(c3ccc(-c4cnc(N)nc4)nc3)CCC2)cc1 [Example 99, 1-[6-(2-aminopyrimidin-5-yl)pyridin-3-yl]-N-[4-(methylsulfonyl)phenyl]cyclobutane-carboxamide]
136 | 857 | Nc1ncc(-c2ccc(C3(C(=O)Nc4ccncc4)CCOCC3)cc2)cn1 [Example 155, 4-[4-(2-aminopyrimidin-5-yl)phenyl]-N-(pyridin-4-yl)tetrahydro-2H-pyran-4-carboxamide]
38.5 | 808 | Cc1nnnn1-c1ccc(NC(=O)C2(c3ccc(-c4cnc(N)nc4)cc3)CCOCC2)cc1 [Example 4, 4-[4-(2-aminopyrimidin-5-yl)phenyl]-N-[4-(5-methyl-1H-tetrazol-1-yl)phenyl]tetrahydro-2H-pyran-4-carboxamide]
46.5 | 1120 | N#Cc1ccc(NC(=O)C2(c3ccc(-c4cnc(N)nc4)cc3)CCOCC2)nc1 [Example 32, 4-[4-(2-aminopyrimidin-5-yl)phenyl]-N-(5-cyanopyridin-2-yl)tetrahydro-2H-pyran-4-carboxamide]
2.35 | 202 | COC(=O)c1ccc(NC(=O)C2(c3ccc(-c4cnc(N)nc4)cc3)CCC2)nc1 [Example 95, methyl 6-[({1-[4-(2-aminopyrimidin-5-yl)phenyl]cyclobuyl}carbonyl)amino]pyridine-3-carboxylate]

Source: US9073895B2 (Boehringer Ingelheim International GmbH, priority 2010, dated 2015)
